Test system: w794 DNA (SV40 DNA segment, 144 bp)
Experiment: DNA alkylation selectivity and efficiency, thermally-induced strand cleavage of w794 DNA
Format: biochemical
Protocol: FIG. 5 illustrates thermally-induced strand cleavage of w794 DNA (SV40 DNA segment, 144 bp, nucleotide nos. 138-5238); DNA-agent incubation for 24 hours at 25° C., removal of unbound agent and 30 minutes of thermolysis (100° C.), followed by denaturing 8% PAGE and autoradiography, lane 1, control DNA; lanes 2-5, Sanger G, C, A, and T sequencing reactions; lanes 6-7 (−)-iso-CBI-TMI (1×10^−3 and 1×10^−4 M); lanes 8-9, (+)-CBI-TMI (1×10^−5 and 1×10^−4 M); lanes 10-11, (+)-duocarmycin SA (1×10^−5 and 1×10^−6).
FIG. 7 illustrates thermally-induced strand cleavage of w794 DNA (SV40 DNA segment, 144 bp, nucleotide nos. 138-5238); DNA-agent incubation for 24 h at 25° C., removal of unbound agent and 30 min of thermolysis (100° C.), followed by denaturing 8% PAGE and autoradiography; lane 1, control DNA; lanes 2-5, Sanger G, C, A, and T sequencing reactions; lanes 6-8 (+)-duocarmycin SA (1×10^−4 to 1×10^−6 M); lanes9-11, seco-iso-CI-TMI (1×10^−3 to 1×10^−5 M).
DNA Alkylation Selectivity and Efficiency: The DNA alkylation properties of the agents were examined within w794 and w836 duplex DNA for which comparative results are available for related agents. (Boger, D. L., et al., J. Am. Chem. Soc. 1994, 116, 11335; Boger, D. L., et al., J. Am. Chem. Soc. 1994, 116, 6461; and Boger, D. L., et al., J. Am. Chem. Soc. 1995, 117, 11647) The alkylation site identification and the assessment of the relative selectivity among the available sites were obtained by thermally-induced strand cleavage of the singly 5′ end-labeled duplex DNA after exposure to the agents. Following treatment of the end-labeled duplex DNA with a range of agent concentrations and temperatures in the dark, the unbound agent was removed by EtOH precipitation of the DNA Redissolution of the DNA in aqueous buffer, thermolysis (100° C., 30 min) to induce strand cleavage at the sites of DNA alkylation, denaturing high-resolution polyacrylamide gel electrophoresis (PAGE) adjacent to Sanger dideoxynucleotide sequencing standards, and autoradiography led to identification of the DNA cleavage and alkylation sites. The full details of this procedure have been disclosed elsewhere. (Boger, D. L., et al., Tetrahedron 1991, 47, 2661.)
DNA Alkylation Studies: Selectivity and Efficiency: Eppendorf tubes containing singly ^32p 5′-end-labeled double-stranded DNA (9 μL) (Boger, D. L., et al., Tetrahedron 1991, 47, 2661.) in TE buffer (10 mM Tris, 1 mM EDTA, pH 7.5) were treated with the agents in DMSO (1 μL, at the specified concentrations). The solutions were mixed by vortexing and brief centrifugation and subsequently incubated at 4° C., 25° C. or 37° C. for 24-72 h. […]

Structure (SMILES): COc1cc2cc(C(=O)N3CC4CC45C(=O)c4ccccc4C=C35)[nH]c2c(OC)c1OC (single isomer, unassigned; (-)) [(−)-iso-CBI-TMI, 2-[(5,6,7-Trimethoxyindol-2-yl)carbonyl]-1,2,9,9a-tetrahydrocyclopropa[c]benzo[f]indol-8-one]
- DNA alkylation sequence selectivity compared with (+)-duocarmycin SA: same sequence selectivity
- DNA alkylation efficiency, less efficient than (+)-CBI-TMI and (+)-duocarmycin SA (24 h, 25° C.): 50-100 ×
